Patent US5455251A, “Michellamine antiviral agents, compositions, and treatment methods” (The United States of America as represented by the …, priority 1993, dated 1995)
Entries after “also recorded” stand apart in the source; their conditions may differ. Like-named read-outs stand apart in the source and are kept apart here.

How the values were obtained:
HIV-1 [1] = conditions: cultured human lymphoblastoid cell lines; Yarchoan et al. 1986; cited from earlier work
HIV = assay type: cell-based
Protocol: A portion (2.107 g) of this extract was suspended/dissolved in 330 ml of 5% aqueous HCl and extracted with four 100 ml aliquots of CHCl3.
The crude alkaloid fraction, obtained by acid-base partitioning, was subjected to centrifugal partition chromatography (CHCl3 --CH3 OH--0.5% HBr/H2 O, 5:5:3), and elution with the lower phase gave four fractions.

HIV-2 [2] = experiment: Anti-HIV-2 (CBL20 strain) activity in CEM-SS cells, XTT assay; assay type: cell-based, HIV-2 CBL20 strain in human CEM-SS cells; conditions: acetate salts
Protocol: (§1) The human lymphocytic target cell lines, CEM-SS and MT-2, used in the antiviral assays were maintained in RPMI 1640 medium (Gibco, Grand Island, N.Y.) without phenol red and supplemented with 5% fetal bovine serum (FBS) (Gibco), 2 mM L-glutamine, and 50 μg/ml gentamicin (Gibco) (complete medium). Exponentially-growing CEM-SS or MT-2 cells were pelleted and resuspended at a concentration of 2.0×10^5 cells/ml in complete medium. For the HIV-1 studies, the Haitian variant of HIV, HTLV-IIIRFwas used. For the HIV-2 studies, the NIH-DZ strain or the CBL20 strain was used. Frozen virus stock solutions were thawed immediately before use and resuspended in complete medium to yield 1.2×10 ^5 SFU/ml.
The appropriate amounts of the pure compounds for anti-HIV evaluations were dissolved in 100% dimethylsulfoxide (DMSO) and then diluted in complete medium to the desired initial concentration (with final DMSO content not exceeding 1%). All serial dilutions of the michellamines A, B, and C, reagent additions, and plate-to-plate transfers were carried out using an automated Biomek 1000 Workstation (Beckman Instruments, Palo Alto, Calif.). Each compound was diluted initially in complete medium and added to a single column of a 96-well microtiter plate (dilution plate). The Biomek was used to perform eight serial dilutions of each drug and to transfer a 100 μl aliquot of each dilution to the test plate. Uninfected CEM-SS or MT-2 cells were plated at a density of 1×10^4 cells in 50 μl of complete medium. Diluted HIV-1 or HIV-2 virus was then added to appropriate wells in a volume of 50 μl to yield a multiplicity of infection of 0.6. Appropriate cell, virus, and drug controls were used, with the final volume in each well being 200 μl. […] Subsequently, aliquots of cell-free supernatant were removed from each well using the Biomek, and analyzed for reverse transcriptase activity, p24 antigen production, and synthesis of infectious virions (see further below). A 25 μl sample of 0.002% (w/v) Fluoricon reference particles (590/620 nm) (Baxter Healthcare Corp.) was added to each well of the test plate to be used as an internal standard for fluorescence assays. […]
(§2) As an estimate of cellular viability, the metabolic reduction of the tetrazolium salt, XTT, to the soluble, colored formazan was carried out by adding 50 μl of the XTT/PMS solution to each well of the original test plate and incubating for 4 hrs at 37° C. After incubation the plates were covered with adhesive plate sealers (Dynatech, Alexandria, Va.) and shaken, and optical densities were determined using a V-max photometer (Molecular Devices, Inc., Menlo Park, Calif.) at a test wavelength of 450 nm. […]

HIV-2 [3] = experiment: Anti-HIV-2 (NIH-DZ strain) activity in MT-2 cells, XTT assay, 6 days; assay type: cell-based, HIV-2 NIH-DZ strain in human MT-2 cells; conditions: for antiviral effects against HIV-2: free bases or HBr salts, NIH-DZ strain, MT-2 cells
Protocol: as §1
The appropriate amounts of the pure compounds for anti-HIV evaluations were dissolved in 100% dimethylsulfoxide (DMSO) and then diluted in complete medium to the desired initial concentration (with final DMSO content not exceeding 1%). All serial dilutions of the michellamines A, B, and C, reagent additions, and plate-to-plate transfers were carried out using an automated Biomek 1000 Workstation (Beckman Instruments, Palo Alto, Calif.). […] Subsequently, aliquots of cell-free supernatant were removed from each well using the Biomek, and analyzed for reverse transcriptase activity, p24 antigen production, and synthesis of infectious virions (see further below). A 25 μl sample of 0.002% (w/v) Fluoricon reference particles (590/620 nm) (Baxter Healthcare Corp.) was added to each well of the test plate to be used as an internal standard for fluorescence assays. […]
as §2

HIV-1 [4] = experiment: Cytoprotection of HIV-1-infected CEM-SS cells, viability by XTT and/or BCECF, 6 days; assay type: cell-based; conditions: acetate salts, XTT assay, HIV-1, side-by-side comparison (Table 4), read-out: EC50 (anti-HIV-1 activity)
Protocol: (§3) A battery of interrelated assays on individual wells from 96-well microtiter plates was performed to show antiviral activity. Measurements of cellular viability, in the presence and absence of the compounds in uninfected and virus-infected cells, by an adaptation of the procedure set forth in Weislow et al., J. Natl. Cancer Inst., 81, 577-586 (1989), as well as by an adaptation of a method using the fluorescent probe 2'-7'-biscar-boxyethyl-5(6)-carboxyfluorescein acetoxymethyl ester (BCECF) as set forth in Rink et al., J. Cell Biol., 95, 189-196 (1982), were performed as described herein below. BCECF is a nonfluorescent molecule which readily enters viable cells where it is hydrolyzed by cellular esterases to a fluorescent molecule. Total cellular DNA content was measured with the dye, 2-diamidino-phenylindole (DAPI), which fluoresces when intercalated at A-T specific sites in chromatin, according to the procedure set forth in McCaffrey et al., In Vitro Cell. Develop. Biol., 24, 247-252 (1988). These dyes are used in combination with Particle Concentration Fluorescent Immunoassay technology (PCFIA), specifically the Screen Machine™ available from Baxter Healthcare Corporation (Mundelein, Ill.). The Screen Machine is a semiautomated fluorescent plate reader capable of adding reagents and/or wash buffers to filter-bottomed, 96-well plates with the subsequent evacuation of fluid and concentration of fluorescently-stained cells on the cellulose acetate filter. Fluorescence is detected via epifluorescence. […]
(§4) The appropriate amounts of the pure compounds for anti-HIV evaluations were dissolved in 100% dimethylsulfoxide (DMSO) and then diluted in complete medium to the desired initial concentration (with final DMSO content not exceeding 1%). […] Subsequently, aliquots of cell-free supernatant were removed from each well using the Biomek, and analyzed for reverse transcriptase activity, p24 antigen production, and synthesis of infectious virions (see further below). […]

uninfected CEM-SS cells = experiment: Direct cytotoxicity to uninfected CEM-SS target cells (XTT/BCECF), 6 days; assay type: cell-based, human; conditions: acetate salts, XTT assay, Table 4
Protocol: as §3, §4

[5] = Variable temperature NMR for spontaneous interconversion of atropisomers; assay type: physicochemical
Description: Michellamine C appears to have the opposite configuration from michellamine A about the C-5/C-8' and C-5"'/C-8" bonds.

Compound: Cc1cn([C@H]2C[C@H](N=[N+]=[N-])[C@@H](CO)O2)c(=O)[nH]c1=O [AZT]
- in vitro cytoprotective effects against HIV-1 (HIV-1 [1]): in vitro cytoprotective effects against the HIV-1

Compound: COc1cc(C)cc2c(-c3c(O)cc(O)c4c3C[C@@H](C)N[C@@H]4C)cc(-c3cc(-c4c(O)cc(O)c5c4C[C@@H](C)N[C@@H]5C)c4cc(C)cc(OC)c4c3O)c(O)c12 [Michellamine A]
- anti-HIV activity of isolated compounds (HIV): active
- EC50 (HIV-2 [2]; listed as michellamine A): ~10 µM
- anti-HIV-2 potency, comparison in words (HIV-2 [2]; listed as michellamine A): somewhat less potent
- antiviral effects against HIV-2 (HIV-2 [3]; listed as michellamine A): showed antiviral effects
- EC50 (HIV-1 [4]; Human immunodeficiency virus 1, CEM-SS): 9.6 µM
- IC50 (uninfected CEM-SS cells; Homo sapiens, CEM-SS): 168 µM

Compound: COc1cc(C)cc2c(-c3c(O)cc(O)c4c3C[C@@H](C)N[C@@H]4C)cc(-c3cc(-c4c(O)cc(O)c5c4C[C@@H](C)N[C@@H]5C)c4cc(C)cc(OC)c4c3O)c(O)c12 [Michellamine B]
- EC50 (HIV-2 [2]; listed as michellamine B): < 2 µM
- EC (essentially complete protection) (HIV-2 [3]; Human immunodeficiency virus 2, MT2, 144 h, read-out: concentration giving essentially complete protection against killing effects of HIV-2 upon MT-2 cells): 30 to 100 µM
- antiviral effects against HIV-2 (HIV-2 [3]; listed as michellamine B): showed antiviral effects; also recorded: consistently was more potent than michellamine A against HIV-2
- EC50 (HIV-1 [4]; listed as B): 9.6 µM
- IC50 (uninfected CEM-SS cells; listed as B): > 240 µM

Compound: COc1cc(C)cc2c(-c3c(O)cc(O)c4c3C[C@@H](C)N[C@@H]4C)cc(-c3cc(-c4c(O)cc(O)c5c4C[C@@H](C)N[C@@H]5C)c4cc(C)cc(OC)c4c3O)c(O)c12 [Michellamine C]
- EC50 (HIV-2 [2]; listed as michellamine C): < 2 µM
- EC50 (HIV-1 [4]; listed as C): 12.8 µM
- IC50 (uninfected CEM-SS cells; listed as C): 193 µM
- spontaneous interconversion [5]: failed to show evidence of spontaneous interconversion
